Results reported in patent publication US12324794B2, “Method to alleviate the symptoms of PMS” (priority 2016, dated 2025).

How the values were obtained:
[1] = test system: women with PMS / PMDD; assay: Case studies of women with PMS or PMDD symptoms (Examples 2-6); assay type: in vivo, human
Source text: Below are some case studies and a human trial, both of which show significant improvement in symptoms. While acne can be measured by inspection, the other symptoms rely upon the internal feelings of the patient. To measure symptoms that deal with tender breasts, fatigue, difficulty concentrating, diminished impulse control, irritability, anxiety, tension, anger, depression, suicidal thoughts, feeling “out of control”, insomnia, cramping and rapid fluctuations in mood, one skilled in the art must rely on the interpretation of patient. This can be done through an interview with an expert, such as a medical doctor, or through validated survey forms that specifically address these symptoms. Examples of these forms that have been validated by independent clinical trial include: • Buss Perry Aggression Questionnaire (Anger) • Clinical Anger Scale (Anger) • Cohen-Perceived-Stress Scale (Anxiety) • Generalized-Anxiety-Scale (Anxiety) • Generalized Anxiety Disorder 7-item (GAD-7) scale (Anxiety) • Beck's Depression Inventory (Depression) • Center for Epidemiologic Studies Depression Scale (Depression) • Hospital Anxiety and Depression Scale (Anxiety and Depression) • Premenstrual Assessment Form (anger, depression, fatigue and anxiety) • Mood Calendar Tracking (anger, depression, fatigue and anxiety) A person experienced severe anger and depression one day a month, right before their period, every month. […] The cramping was not relieved by Midol or Aspirin. The person was despondent even after their symptoms of PMDD left because of guilt over their behavior during this time period. […] They reported that it was like a 1,000 pound weight being taken off their shoulders. The person in Example 3 continued to take oxaloacetate each month for the next three months and monitored their progress. They took one pill starting about 10 days before their period, and continued taking 1 pill daily until the first sign of PMS, when they increased the dosage to 2 capsules per day until the 2nd day of their period. […] They reported that “I am no longer a suicidal, psychotic crazy person every month. And I know it is the supplements because this will be the 3rd month with no PMDD and that is NOT a coincidence.” A person presented with severe PMDD ever since they were […]. They are now 26. Typically, the patient had to take-off from work 3 days out of each month, and self-seclude, because they could not be with people. […] The improvements with anhydrous enol-oxaloacetate have continued for over 2 years with this patient. A person presented with severe anxiety attacks and fatigue during the week before menstruation.

[2] = test system: women with PMS; assay: Single-blinded, placebo controlled cross-over trial for PMS emotional symptoms (Example 8); assay type: in vivo, human; design: concentration or dose not given beside the values; details: placebo first, oxaloacetate second, 19 women
Source text: The clinical trial of Example 7 was repeated with 19 women, except that the trial was single blinded. The placebo was sent to all women first, and the oxaloacetate active second. […] This should not have come as a complete surprise to us, as oxaloacetate exerts a beneficial effect on gene expression (movement towards the calorie restriction metabolic state) that can have positive effects for several weeks after discontinuation of the product. To better measure the oxaloacetate effect, therefore, oxaloacetate was given second in this trial. P values were calculated using a student's T test, using a two-tailed distribution with paring of the data to the individual.

[3] = in vivo
Source text: The dose ratio between toxic and therapeutic effects is the therapeutic index and it can be expressed as the ratio LD50/ED50.

[4] = test system: women with PMS; assay: Randomized, double-blinded, placebo controlled cross-over trial for PMS emotional symptoms (Example 7); assay type: in vivo, human; details: 200 mg oxaloacetate per day, approx. 28 days, 26 women
Procedure: A randomized, double blinded placebo-controlled crossover trial was conducted using 200 mg oxaloacetate per day as the active ingredient, and rice flour as the placebo ingredient. An Institutional Review Board (IRB) has approved the clinical plan, and patients have signed the human consent forms. Patients were located from across the United States. Consent forms and survey questionnaires were filled out on-line. The patients and the lead investigator were unaware of which product, Active or Placebo, the patients were receiving. Inclusion Criteria for the trial: • Able to give informed consent and follow instructions per the protocol • Female with history of mood swings, anxiety or depressed mood associated with PMS • Ages 21 to 50 at the start of the study • Not pregnant Exclusion Criteria for the trial: • A formal diagnosis of Major Depression • Previously taken Oxaloacetate as a supplement • Participation in other drug studies or use of other investigational products within 30 days prior to baseline • If unwilling to discontinue use of other nutritional supplements taken for the purpose of PMS modulation during the study • Any unstable or clinically significant condition that would impair the subject's ability to comply with study follow up. • […] of Premenstrual Dysphoric Disorder (PMDD) (a severe form of PMS). After signing the human consent forms, the patient took four different surveys to assess their current emotional state during PMS. • The Beck Depression Inventory modified to examine the week prior to the person's period (21 questions) • The Cohen Perceived Stress form, modified to examine the week prior to the person's period (10 questions). • The Generalized Anxiety Disorder 7-Item Scale modified to examine the week prior to the person's period (7 questions). • The Buss Perry Aggression questionnaire modified to examine the week prior to the person's period (29 questions). The time to fill out the composite 4-survey questionnaire is less than 30 minutes. The questionnaires are filled out on-line and made available to investigator team. […] After a “baseline” 4-survey questionnaire was completed by the women, they would be randomly sent either the Active oxaloacetate compound (200 mg oxaloacetate) or the Placebo (200 mg rice flour). The women would take a daily dose of the compound received, starting with their menstrual period, and continuing daily until the following menstrual period. At that following menstrual period, the women would again complete the 4-survey questionnaire. […] This is a “cross-over” type design. The women take the new product staring on a menstrual period, and continue taking it daily until a following menstrual period. The then again complete the 4-survey questionnaire. In this trial, each woman completed a baseline survey, and a survey after approximately 28 days for oxaloacetate, and a survey after approximately 28 days for rice flour. 26 women completed the study. Half of the women took oxaloacetate first, and the other half took a placebo first. […] P values were calculated using a student's T test, using a two-tailed distribution with paring of the data to the individual.

[5] = test system: women with PMS; assay: Suicidal Ideation item of Beck's Depression Inventory, Clinical Trials 1 and 2 compiled (Example 9); assay type: in vivo, human; details: 31 women with baseline score above 0, both trials compiled
Source text: In the clinical trials within Examples 7 and 8, the Beck's Depression Inventory was used. One portion of the Beck's Depression Inventory specifically deals with “Suicidal Ideation” (thoughts about committing suicide). The survey scores the relative severity of suicidal ideation via numerical scoring as follows: • Score Value • 0 I don't have any thoughts of killing myself. • 1 I have thoughts of killing myself, but I would not carry them out. • 2 I would like to kill myself. • 3 I would kill myself if I had the chance. The results of Clinical Trial 1 and 2 were compiled to examine the Suicidal Ideation of the women who participated in this clinical trial. Out of the 45 women in both trials, 31 women experienced a score above 0 in the baseline survey. No women in the completed study who scored 0 in the baseline study increased their suicidal ideation score. In order to examine suicidal ideation statistically, women with a 0 score on their baseline survey were removed from the analysis. P values were calculated using a student's T test, using a two-tailed distribution with paring of the data to the individual.

[6] = Stability / decarboxylation; assay type: physicochemical
Source text: The enol and keto form of oxaloacetic acid are tautomers, and in water form a chemical equilibrium. […] The keto-oxaloacetate decarboxylates quickly to pyruvate. As the keto-oxaloacetate form disappears due to decarboxylation, the enol and hydrated form convert to keto-oxaloacetate, and then also decarboxylate into carbon dioxide and pyruvate, until all the oxaloacetate is consumed. Note that neither of the byproducts of oxaloacetate decarboxylation, carbon dioxide and pyruvate, are effective in treating the symptoms of PMS and PMDD. If there are divalent cations in the fluid, which is very common, the decarboxylation of oxaloacetic acid can happen within a day. […] (See Cash, U.S. Pat. No. 9,050,306). […] Water catalyzes the equilibrium reaction between enol- and keto oxaloacetic acid. Note that only the keto form of oxaloacetic acid decarboxylates into pyruvate and carbon dioxide spontaneously, not the enol-form. There is an energy gap between the enol and keto form which is bridged when the compounds are exposed to water, however, this same energy gap prevents the conversion of the enol to keto form when the product is kept dry. Once there is a conversion to the keto form, decarboxylation can spontaneously occur at temperatures above the freezing point of water. […] Drying effectiveness can be increased by increasing the drying time, drying under vacuum, by using anhydrous washes of isopropyl alcohol or ethyl alcohol to absorb the remaining water (and then evaporating the alcohol), or by performing multiple washes with hexane or non-water soluble solvent to physically remove the water, typically after an alcohol wash. The non-water soluble solvent would then be evaporated off. […] Hexane is a residual solvent in many commercial food preparations including decaffeinated coffee, and is not toxic in small quantities. Alternatively, the final wash can be performed with liquefied propane, liquefied butane, ethyl acetate, ethane, carbon dioxide, or nitrous oxide to reduce the water content.

[7] = Forms of oxaloacetic acid in water; assay type: physicochemical; details: pH 6.9
Procedure: In some embodiments, the present invention provides methods for treating symptoms of PMS and methods for treating symptoms of PMS and PMDD comprising administration of compositions comprising oxaloacetate. Oxaloacetic acid, when dissolved in water, ionizes to oxaloacetate. The oxaloacetate can be in three forms depending on the pH of the solution. At low pH (<1.5) and low temperature (<4° C.) oxaloacetate hydrates. […] Outside of water solutions, the solid form of oxaloacetic acid is primarily in the enol form. All forms of oxaloacetic acid and the ion oxaloacetate are absorbed by the body. The hydrated form is mostly converted once it enters the higher pH of the body outside of the intestinal tract to the keto and enol form. […] Enol-oxaloacetate is converted to keto-oxaloacetate with the enzyme enol-keto tautomerase, a ubiquitous enzyme throughout the human body. The enol and keto form of oxaloacetic acid are tautomers, and in water form a chemical equilibrium. […] The keto-oxaloacetate decarboxylates quickly to pyruvate. As the keto-oxaloacetate form disappears due to decarboxylation, the enol and hydrated form convert to keto-oxaloacetate, and then also decarboxylate into carbon dioxide and pyruvate, until all the oxaloacetate is consumed. Note that neither of the byproducts of oxaloacetate decarboxylation, carbon dioxide and pyruvate, are effective in treating the symptoms of PMS and PMDD. If there are divalent cations in the fluid, which is very common, the decarboxylation of oxaloacetic acid can happen within a day.

In the case of `CC(=O)Oc1ccccc1C(=O)O` [Aspirin, reference compound], the “relief of extreme cramping (pain level 10)” value ([1]; person with PMDD, history (Example 3)) is reported as “not relieved”.

In the case of `O=C(O)CC(=O)C(=O)O` [Oxaloacetate], the “Beck's Depression Inventory, reduction from Placebo” value [2] is reported as 37.12%, the “Beck's Depression Inventory, reduction from baseline” value [2] is reported as 54.42% and the “Buss-Perry Aggression Scale, reduction from Placebo” value [2] is reported as 14.06%. The “Buss-Perry Aggression Scale, reduction from baseline” value [2] was 17.81%, the “Cohen Perceived Stress, reduction from Placebo” value [2] was 24.40% and the “Cohen Perceived Stress, reduction from baseline” value [2] was 36.67%. For the same compound, the “Generalized Anxiety Disorder, reduction from Placebo” value [2] was 38.02%, the “Generalized Anxiety Disorder, reduction from baseline” value [2] was 54.23% and the LD50 [3] was “above 5 g/kg of body weight”. For the same compound, the “Beck's Depression Inventory, reduction from Placebo” value [4] was 25.57%, the “Beck's Depression Inventory, reduction from baseline” value [4] was 50.88% and the “Buss-Perry Aggression Scale, reduction from Placebo” value [4] was 9.22%. For the same compound, the “Buss-Perry Aggression Scale, reduction from baseline” value [4] was 15.10%, the “Cohen Perceived Stress, reduction from Placebo” value [4] was 16.51% and the “Cohen Perceived Stress, reduction from baseline” value [4] was 34.35%. For the same compound, the “Generalized Anxiety Disorder, reduction from Placebo” value [4] was 28.08%, the “Generalized Anxiety Disorder, reduction from baseline” value [4] was 49.73% and the “Suicidal Ideation, reduction from Baseline” value [5] was 47.90%.

With `O=C(O)CC(=O)C(=O)O` [anhydrous enol-oxaloacetate, anhydrous enol-oxaloacetic acid] the “fatigue during the week before menstruation” value ([1]; person, two 100 mg lozenges under the tongue (Example 6)) was “greatly reduced”, the “time until panic attack subsided” value ([1]; person, two 100 mg lozenges under the tongue for 5 minutes (Example 6)) was “less than 5 minutes” and the “severe premenstrual anger and depression” value ([1]; person, two capsules of 100 mg on that day (Example 2)) was “reduced in intensity to the point where they could manage the symptoms easily”. The “stability at room temperature” value ([6]; room temperature, kept dry) was “exceeding one year”.

In the case of `O=C(O)CC(=O)C(=O)O` [oxaloacetic acid], the “share in the enol form” value [7] is reported as 11%, the “share in the hydrated form” value [7] is reported as 5% and the “share in the keto form” value [7] is reported as 84%. The “time to decarboxylation in fluid” value ([6]; divalent cations in the fluid) was “within a day” and the “stability of the hydrated form” value ([6]; very low pH, temperatures not exceeding 8° C.) was “less than one week”.
